# In patent US20190343908A1, “Therapeutic Combination for the Treatment of Cancer” (Nerium Biotechnology Inc., priority 2011, published 2019):
# Tests used:
# [1] = system: CALU-1 (non-small cell lung carcinoma); assay: Methyl-Tetrazolium viability assay, CALU-1; type: cell-based, human
# Text: (§1) Three different viability assays were chosen to complement each other and yielded results dependent on concentration and cell line: the Methyl Tetrazolium dye assay, the Sulforhodamine B fluorescent dye assay, and the Crystal Violet dye assay.
# The Methyl-Tetrazolium dye assay measures the activity of enzymes in mitochondria. The dye precursor is taken up by cells, where it undergoes reduction to the purple formazan. It measures only the mitochondrial activity and, thus, it is not always a reliable indication of whether the cells themselves are alive or dead, since even a recently dead cell has […] enzyme activity in mitochondria. Intracellular glucose concentration, pH, and time before assay all affect the measurements.
# (§2) The Methyl Tetrazolium, Sulforhodamine B, and Crystal Violet assays were used to assess cell viabilities. The incubation times were 24 hours, 48 hours, and 72 hours. The Nerium oleander extract Anvirzel™ (a hot water extract of oleander obtained from Salud Integral, Honduras) was tested in concentrations ranging from 0.01 ng/mL to 10 ng/mL.
# (§3) Cells were detached by trypsinization (Trypsin-0.25% EDTA, Invitrogen, 25200-072) during the logarithmic phase of culture growth and plated in 96-well plates (18.000 cells/well) (Corning, Costar 359) in a final volume of 200 μl of medium per well. […] The absorbance was measured after 24 hours, 48 hours, and 72 hours of incubation.
# For the Methyl-Tetrazolium assay, the dye (Sigma, M2128; 5 mg/mL, diluted in phosphate-buffered saline) was added to each well and plates were incubated for 3 hours at 37° C. After the end of the incubation period, the medium was discarded and the cells were rinsed with phosphate-buffered saline. Finally, the formazan crystals were dissolved in dimethylsulphoxide (Sigma, D4540).
# (§4) The optical density of each plate was measured on a μQuant spectrophotometer and the data were analyzed with Gen5 software (μQuant Biomolecular Spectrophotometer MQX200 and Gen5™ Microplate Data Collection & Analysis software, BioTek® Instruments. Inc, April 2008). Absorbance was measured at 570 nm for all assays and a second wavelength was measured in order to subtract noise. For the Methyl-Tetrazolium assay this second wavelength was 630 nm and for the Sulforhodamine B and Crystal Violet assays it was 690 nm.
# [2] = system: PC3 (human prostate cancer); assay: Sulforhodamine B viability assay, PC3; type: cell-based
# Text: as §1
# The Sulforhodamine B and Crystal Violet assays provide information about protein and were used to complement the Methyl-Tetrazolium dye assay. […] It is used for the quantification of cellular proteins of cultured cells. The assay using Crystal Violet, a dye that binds electrostatically to proteins and stains DNA, provides a reliable, simple assay for measuring viability of cells.
# as §2, §3
# For the Sulforhodamine B assay, 96-well plates were fixed by 10% trichloroacetic acid (Fluka, 91228) and were incubated at 4° C. for 1 hour. Afterwards, plates were rinsed with water and cells were stained with 0.4% Sulforhodamine B (Sigma, 341738), dissolved in 1% acetic acid (Carlo Ebra, 401422) for 15 minutes at room temperature (RT). The unbound stain was washed twice with 1% acetic acid. Finally, 10 mM Tris Buffer pH 10.5 (Sigma, T6791) was added to dissolve the dye.
# as §4
smiles,measurement,setting,value
N.N.[Cl][Pt][Cl] [cisplatin],Average MTT 24 h,"[1]; CALU-1 Run 1, 0.1 μg/ml CDDP",0.178
same,Average MTT 48 h,"[1]; CALU-1 Run 1, 0.1 μg/ml CDDP",0.272
same,Average MTT 72 h,"[1]; CALU-1 Run 1, 0.1 μg/ml CDDP",0.272
same,Average MTT 24 h,"[1]; CALU-1 Run 1, 1 μg/ml CDDP",0.024
same,Average MTT 48 h,"[1]; CALU-1 Run 1, 1 μg/ml CDDP",0.024
same,Average MTT 72 h,"[1]; CALU-1 Run 1, 1 μg/ml CDDP",0.032
same,Average MTT 24 h,"[1]; CALU-1 Run 1, 10 μg/ml CDDP",0.043
same,Average MTT 48 h,"[1]; CALU-1 Run 1, 10 μg/ml CDDP",0.031
same,Average MTT 72 h,"[1]; CALU-1 Run 1, 10 μg/ml CDDP",0.024
same,Average MTT 24 h,"[1]; CALU-1 Run 1, 100 μg/ml CDDP",0.033
same,Average MTT 48 h,"[1]; CALU-1 Run 1, 100 μg/ml CDDP",0.033
same,Average MTT 72 h,"[1]; CALU-1 Run 1, 100 μg/ml CDDP",0.019
same,Average MTT 24 h,"[1]; CALU-1 Run 2, 0.1 μg/ml CDDP",0.244
same,Average MTT 48 h,"[1]; CALU-1 Run 2, 0.1 μg/ml CDDP",0.322
same,Average MTT 72 h,"[1]; CALU-1 Run 2, 0.1 μg/ml CDDP",0.29
same,Average MTT 24 h,"[1]; CALU-1 Run 2, 1 μg/ml CDDP",0.055
same,Average MTT 48 h,"[1]; CALU-1 Run 2, 1 μg/ml CDDP",0.024
same,Average MTT 72 h,"[1]; CALU-1 Run 2, 1 μg/ml CDDP",0.021
same,Average MTT 24 h,"[1]; CALU-1 Run 2, 10 μg/ml CDDP",0.056
same,Average MTT 48 h,"[1]; CALU-1 Run 2, 10 μg/ml CDDP",0.019
same,Average MTT 72 h,"[1]; CALU-1 Run 2, 10 μg/ml CDDP",0.015
same,Average MTT 24 h,"[1]; CALU-1 Run 2, 100 μg/ml CDDP",0.035
same,Average MTT 48 h,"[1]; CALU-1 Run 2, 100 μg/ml CDDP",0.016
same,Average MTT 72 h,"[1]; CALU-1 Run 2, 100 μg/ml CDDP",0.018
same,Average MTT 24 h,"[1]; CALU-1 Run 3, 0.1 μg/ml CDDP, 24 h",0.178
same,Average MTT 48 h,"[1]; CALU-1 Run 3, 0.1 μg/ml CDDP, 48 h",0.281
same,Average MTT 72 h,"[1]; CALU-1 Run 3, 0.1 μg/ml CDDP, 72 h",0.295
same,Average MTT 24 h,"[1]; CALU-1 Run 3, 1 μg/ml CDDP, 24 h",0.029
same,Average MTT 48 h,"[1]; CALU-1 Run 3, 1 μg/ml CDDP, 48 h",0.033
same,Average MTT 72 h,"[1]; CALU-1 Run 3, 1 μg/ml CDDP, 72 h",0.031
same,Average MTT 24 h,"[1]; CALU-1 Run 3, 10 μg/ml CDDP, 24 h",0.057
same,Average MTT 48 h,"[1]; CALU-1 Run 3, 10 μg/ml CDDP, 48 h",0.025
same,Average MTT 72 h,"[1]; CALU-1 Run 3, 10 μg/ml CDDP, 72 h",0.022
same,Average MTT 24 h,"[1]; CALU-1 Run 3, 100 μg/ml CDDP, 24 h",0.028
same,Average MTT 48 h,"[1]; CALU-1 Run 3, 100 μg/ml CDDP, 48 h",0.026
same,Average MTT 72 h,"[1]; CALU-1 Run 3, 100 μg/ml CDDP, 72 h",0.002
same,SRB Average,"[2]; PC3 Run 1, 24 h, 0.1 μg/ml CDDP",2.058
same,SRB Average,"[2]; PC3 Run 1, 24 h, 1 μg/ml CDDP",1.352
same,SRB Average,"[2]; PC3 Run 1, 24 h, 10 μg/ml CDDP",1.604
same,SRB Average,"[2]; PC3 Run 1, 24 h, 100 μg/ml CDDP",1.605
same,SRB Average,"[2]; PC3 Run 1, 48 h, 0.1 μg/ml CDDP",2.343
same,SRB Average,"[2]; PC3 Run 1, 48 h, 1 μg/ml CDDP",1.677
same,SRB Average,"[2]; PC3 Run 1, 48 h, 10 μg/ml CDDP",2.159
same,SRB Average,"[2]; PC3 Run 1, 48 h, 100 μg/ml CDDP",1.851
same,SRB Average,"[2]; PC3 Run 1, 72 h, 0.1 μg/ml CDDP",2.256
same,SRB Average,"[2]; PC3 Run 1, 72 h, 1 μg/ml CDDP",2.227
same,SRB Average,"[2]; PC3 Run 1, 72 h, 10 μg/ml CDDP",2.554
same,SRB Average,"[2]; PC3 Run 1, 72 h, 100 μg/ml CDDP",1.543
same,SRB Average,"[2]; PC3 Run 2, 24 h, 0.1 μg/ml CDDP",1.578
same,SRB Average,"[2]; PC3 Run 2, 24 h, 1 μg/ml CDDP",1.469
same,SRB Average,"[2]; PC3 Run 2, 24 h, 10 μg/ml CDDP",1.403
same,SRB Average,"[2]; PC3 Run 2, 24 h, 100 μg/ml CDDP",1.5
